Data from patent US20240132484A1, “BROAD SPECTRUM ANTIVIRAL COMPOUNDS TARGETING THE SKI COMPLEX” (priority 2020, published 2024).
Several values for one entry are separate records, joined by “and”; a condition that tells them apart may be missing. Equal entries are not always repeated. Entries after “also recorded” stand apart in the source; their conditions may differ. Where two headings read alike, the source gives them in different places.

What was measured:
SARS2 = format: cell-based, SARS-CoV-2; details: for Infection Data, Average, Mean percentage infection relative to DMSO control: Average of Exp 1 (SMW491) and Exp 2 (SMW492); for Infection Data, Percentage Infection Relative to Appropriate DMSO Control: single well, avg background subtraction
cells (nuclei count) = details: for Toxicity Data, Average, Mean percentage relative to DMSO control: Average of Exp 1 (SMW491) and Exp 2 (SMW492); for Toxicity Data, Percentage Relative to Appropriate DMSO Control: single well

COc1ccc(CNCCc2ccccc2F)c(OCC(O)CN2CCCC2)c1 (racemic) [SILCS43]
SARS2 antiviral activity (SARS2): highest activity to date; also recorded: most potent
potency relative to UMB18 (more potent) (SARS2): 3-4
Infection Data, Average, Mean percentage infection relative to DMSO control (SARS2; n=4, 1 uM): 18.21%
Infection Data, Average, Mean percentage infection relative to DMSO control (SARS2; n=4, 5 uM): 6.50%
Infection Data, Average, Mean percentage infection relative to DMSO control (SARS2; n=4, 10 uM): 0.85%
Infection Data, Average, Mean percentage infection relative to DMSO control (SARS2; n=4, 25 uM): 6.12%
Infection Data, Average, Mean percentage infection relative to DMSO control (SARS2; n=4, 50 uM): −13.34%
Infection Data, Percentage Infection Relative to Appropriate DMSO Control (SARS2; Exp 1 (SMW491), 1 uM): 11.14% and 9.36%
Infection Data, Percentage Infection Relative to Appropriate DMSO Control (SARS2; Exp 1 (SMW491), 5 uM): 5.93% and 4.01%
Infection Data, Percentage Infection Relative to Appropriate DMSO Control (SARS2; Exp 1 (SMW491), 10 uM): 0.28% and −0.66%
Infection Data, Percentage Infection Relative to Appropriate DMSO Control (SARS2; Exp 1 (SMW491), 25 uM): 1.98% and −0.83%
Infection Data, Percentage Infection Relative to Appropriate DMSO Control (SARS2; Exp 1 (SMW491), 50 uM): −10.07%
Infection Data, Percentage Infection Relative to Appropriate DMSO Control (SARS2; Exp 2 (SMW492), 1 uM): 18.42% and 33.91%
Infection Data, Percentage Infection Relative to Appropriate DMSO Control (SARS2; Exp 2 (SMW492), 10 uM): 1.81% and 1.99%
Infection Data, Percentage Infection Relative to Appropriate DMSO Control (SARS2; Exp 2 (SMW492), 50 uM): −16.61%
Percentage Inhibition Average 1 μM (SARS2; SARS2, 1 μM): 81.79%
Screening data (Relative infection to DMSO controls) Average 1 μM (SARS2; SARS2, 1 μM, 100=DMSO control): 18.21
Percentage Inhibition Average 5 μM (SARS2; SARS2, 5 μM): 93.50%
Screening data (Relative infection to DMSO controls) Average 5 μM (SARS2; SARS2, 5 μM, 100=DMSO control): 6.50
Percentage Inhibition Average 10 μM (SARS2; SARS2, 10 μM): 99.15%
Screening data (Relative infection to DMSO controls) Average 10 μM (SARS2; SARS2, 10 μM, 100=DMSO control): 0.85
Percentage Inhibition Average 25 μM (SARS2; SARS2, 25 μM): 93.88%
Screening data (Relative infection to DMSO controls) Average 25 μM (SARS2; SARS2, 25 μM, 100=DMSO control): 6.12
Percentage Inhibition Average 50 μM (SARS2; SARS2, 50 μM): 113.34%
Screening data (Relative infection to DMSO controls) Average 50 μM (SARS2; SARS2, 50 μM, 100=DMSO control): −13.34
Average (relative infection to DMSO over the 5 tested concentrations) (SARS2; SARS2, average over 1 to 50 uM, 100=DMSO control): 3.67
apparent IC50 (SARS2; racemic mixture): high nanomolar range
Relative cell count to DMSO controls, Average 1 μM (cells (nuclei count); 1 μM, toxicity data, 100=DMSO control): 154.73
Relative cell count to DMSO controls, Average 5 μM (cells (nuclei count); 5 μM, toxicity data, 100=DMSO control): 151.78
Relative cell count to DMSO controls, Average 10 μM (cells (nuclei count); 10 μM, toxicity data, 100=DMSO control): 132.39
Relative cell count to DMSO controls, Average 25 μM (cells (nuclei count); 25 μM, toxicity data, 100=DMSO control): 136.27
Relative cell count to DMSO controls, Average 50 μM (cells (nuclei count); 50 μM, toxicity data, 100=DMSO control): 0.01
Toxicity Data, Average, Mean percentage relative to DMSO control (cells (nuclei count); n=4, 1 uM): 154.73%
Toxicity Data, Average, Mean percentage relative to DMSO control (cells (nuclei count); n=4, 5 uM): 151.78%
Toxicity Data, Average, Mean percentage relative to DMSO control (cells (nuclei count); n=4, 10 uM): 132.39%
Toxicity Data, Average, Mean percentage relative to DMSO control (cells (nuclei count); n=4, 25 uM): 136.27%
Toxicity Data, Average, Mean percentage relative to DMSO control (cells (nuclei count); n=4, 50 uM): 0.01%
Toxicity Data, Percentage Relative to Appropriate DMSO Control (cells (nuclei count); Exp 1 (SMW491), 1 uM): 151% and 166%
Toxicity Data, Percentage Relative to Appropriate DMSO Control (cells (nuclei count); Exp 1 (SMW491), 5 uM): 130% and 166%
Toxicity Data, Percentage Relative to Appropriate DMSO Control (cells (nuclei count); Exp 1 (SMW491), 10 uM): 118% and 121%
Toxicity Data, Percentage Relative to Appropriate DMSO Control (cells (nuclei count); Exp 1 (SMW491), 25 uM): 121% and 136%
Toxicity Data, Percentage Relative to Appropriate DMSO Control (cells (nuclei count); Exp 1 (SMW491), 50 uM): 0%
Toxicity Data, Percentage Relative to Appropriate DMSO Control (cells (nuclei count); Exp 2 (SMW492), 1 uM): 156% and 145%
Toxicity Data, Percentage Relative to Appropriate DMSO Control (cells (nuclei count); Exp 2 (SMW492), 5 uM): 155% and 156%
Toxicity Data, Percentage Relative to Appropriate DMSO Control (cells (nuclei count); Exp 2 (SMW492), 10 uM): 145% and 146%
Toxicity Data, Percentage Relative to Appropriate DMSO Control (cells (nuclei count); Exp 2 (SMW492), 25 uM): 143% and 145%
Toxicity Data, Percentage Relative to Appropriate DMSO Control (cells (nuclei count); Exp 2 (SMW492), 50 uM): 0%
Relative cell count to DMSO controls, Average (for correlation analysis) (cells (nuclei count); average value over the 5 tested concentrations (1 to 50 uM)): 115.04
